Reference: paper PMC12582325 (Proceedings of the National Academy of Sciences of the …, 2025)
Where “and” joins values, the source holds several entries; their conditions need not be identical. Equal values may be shown once. Read-outs that look alike come from different tables or passages of the source. Where a SMILES comes first, the peptide text is derived from it.

Assays:
F. oxysporum germ tubes = settings: gradient of 400 μM pheromone against the solvent (50% methanol); 13 h; water-agar; three biological replicates; Fig. 5A
Method: For the B. bassiana and F. oxysporum chemotropism assay and plant infection assays the pheromones were dissolved in 50% (v/v) MeOH to reach a concentration of 4,000 μM.
Fungal chemotropism was conducted as previously described ([11]). For each compound or combination of compounds tested, 300 hyphal tips were scored. All experiments were performed in three biological replicates.

[1] = system: F. oxysporum in tomato roots; assay: Quantification of fungal DNA in tomato roots (qPCR); settings: 3 d after inoculation, washed roots; compared to the untreated infected roots; three biological replicates
[2] = system: no_GPCR (negative control lacking a GPCR); type: cell-based, Saccharomyces cerevisiae; settings: for barcode qPCR of diploids, no_GPCR x pheromone strain: consortium, individual replicates (n=3), listed as Fo.Pheromone
[3] = system: F. oxysporum infection of tomato plants; assay: Tomato plant mortality assay; type: in vivo, Fusarium oxysporum / Solanum lycopersicum; settings: groups of 10 plants; 3.2 × 10^6 microconidia/mL supplemented with pheromone once at inoculation; 50 d; Kaplan-Meier, log-rank
Method: Tomato plant infection assays were performed as described ([61]) with F. oxysporum microconidia and treatment inoculation as described above. Plants were transferred to a growth and plant survival was recorded daily for 50 d. Plant death was diagnosed as a complete collapse of the stem, without any green parts left. The Kaplan–Meier test was used to assess statistical significance of differences in survival among groups using the log-rank test in GraphPad Prism. The infection experiment was conducted two times with 10 plants per condition.

Bc.Ste2 = type: cell-based, Botrytis cinerea
Sc Ste2 = biological target: T1, Sc Ste2 (Saccharomyces cerevisiae, UniProt D6VTK4); type: cell-based
T1 construct: The native Sc system and an empty construct were added as positive and negative controls; endogenous in cells; host or cells: Saccharomyces cerevisiae wild-type control strains GEN18 (MATa) and GEN27 (MATα)
T1 sequence (D6VTK4 1-431): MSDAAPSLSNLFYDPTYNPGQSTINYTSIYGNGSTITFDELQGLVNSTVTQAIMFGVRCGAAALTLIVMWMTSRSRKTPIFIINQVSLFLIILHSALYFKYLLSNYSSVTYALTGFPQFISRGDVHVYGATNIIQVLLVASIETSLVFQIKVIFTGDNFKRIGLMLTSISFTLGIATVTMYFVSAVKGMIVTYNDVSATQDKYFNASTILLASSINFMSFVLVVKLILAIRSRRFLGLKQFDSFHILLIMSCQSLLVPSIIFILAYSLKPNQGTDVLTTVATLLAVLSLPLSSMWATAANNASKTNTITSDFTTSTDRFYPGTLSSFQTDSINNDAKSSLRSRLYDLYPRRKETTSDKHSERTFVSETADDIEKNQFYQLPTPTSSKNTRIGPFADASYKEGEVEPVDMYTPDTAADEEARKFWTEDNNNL

Fg.Ste2 [4] = type: cell-based, Fusarium graminearum; settings: YPL1 library cocultured with Fg.Ste2 strain GEN87, 20 h, 2 d diploid enrichment, NextSeq 500
Fg.Ste2 [5] = type: cell-based, Fusarium graminearum; settings: for Diploid frequency (%): 20 h coculture; for diploid frequency (%) / average (diploid colonies): GPCR strain GEN37 HIS; for average (diploid colonies): dilution 500, mean of Rep1-3
Fo.Ste2 [6] = type: cell-based, Fusarium oxysporum
Bb.Ste2 = type: cell-based, Beauveria bassiana
Fo.Ste2 [7] = type: cell-based, Fusarium oxysporum; remark: listed apart in the source
[8] = system: empty (strain lacking a GPCR); type: cell-based, Saccharomyces cerevisiae; settings: Fig. 1D mating matrix; pheromone secreted by MATa strain, MATα strain lacking a GPCR (empty); deep well plate, 20 h coculture

With `C[C@@H](O)[C@H](NC(=O)[C@H](CS)NC(=O)[C@@H](N)Cc1c[nH]c2ccccc12)C(=O)N[C@@H](Cc1c[nH]c2ccccc12)C(=O)N[C@@H](CCCNC(=N)N)C(=O)NCC(=O)N[C@@H](CCC(N)=O)C(=O)N1CCC[C@H]1C(=O)N[C@@H](CS)C(=O)N[C@@H](Cc1c[nH]c2ccccc12)C(=O)O` [Fo] (H-WCTWRGQPCW-OH; N-terminus assumed) the “Chemotropic response in F. oxysporum germ tubes” value (F. oxysporum germ tubes) was “significant chemotropic response”, the “Fungal biomass in inoculated tomato roots (qPCR of Fol4287 actin gene, 2^−ΔΔCt, normalized to tomato gapdh)” value [1] was “significant reduction in fungal biomass” and the “barcode qPCR of diploids, no_GPCR x pheromone strain” value ([2]; SC-AS/Urea) was 0 and 0.004 and 0.005. The “barcode qPCR of diploids, no_GPCR x pheromone strain” value ([2]; SC) was 0 (2×) and 0.007, the “diploid barcode qPCR signal relative to control (2^-dCt)” value ([2]; section A4, GPCR strain not given, mean of Bio1-3) was 0.036 and the “diploid barcode qPCR signal relative to control (2^-dCt)” value ([2]; section A4, column EMPTY, replicate Bio1) was 0.014. The “diploid barcode qPCR signal relative to control (2^-dCt)” value ([2]; section A4, column EMPTY, replicate Bio2) was 0.039, the “diploid barcode qPCR signal relative to control (2^-dCt)” value ([2]; section A4, column EMPTY, replicate Bio3) was 0.054 and the “diploid barcode qPCR signal relative to control (2^-dCt)” value ([2]; section Cm, GPCR strain not given, mean of Bio1-3) was 0.002. For the same compound, the “diploid barcode qPCR signal relative to control (2^-dCt)” value ([2]; section Cm, column EMPTY, replicate Bio1) was 0.005, the “diploid barcode qPCR signal relative to control (2^-dCt)” value ([2]; section Cm, column EMPTY, replicate Bio2) was 0 and the “diploid barcode qPCR signal relative to control (2^-dCt)” value ([2]; section Cm, column EMPTY, replicate Bio3) was 0. For the same compound, the “diploid barcode qPCR signal relative to control (2^-dCt)” value ([2]; section SC, GPCR strain not given, mean of Bio1-3) was 0.0024, the “diploid barcode qPCR signal relative to control (2^-dCt)” value ([2]; section SC, column EMPTY, replicate Bio1) was 0 and the “diploid barcode qPCR signal relative to control (2^-dCt)” value ([2]; section SC, column EMPTY, replicate Bio2) was 0. The “diploid barcode qPCR signal relative to control (2^-dCt)” value ([2]; section SC, column EMPTY, replicate Bio3) was 0.007, the “diploid barcode qPCR signal relative to control (2^-dCt)” value ([2]; section Scramble, GPCR strain not given, mean of Bio1-3) was 0.0071 and the “diploid barcode qPCR signal relative to control (2^-dCt)” value ([2]; section Scramble, column EMPTY, replicate Bio1) was 0. For the same compound, the “diploid barcode qPCR signal relative to control (2^-dCt)” value ([2]; section Scramble, column EMPTY, replicate Bio2) was 0.015, the “diploid barcode qPCR signal relative to control (2^-dCt)” value ([2]; section Scramble, column EMPTY, replicate Bio3) was 0.006 and the Tomato plant survival [3] was “no significant difference in plant survival”. For the same compound, the “Diploid frequency (%)” value (Bc.Ste2) was 0.1% and 0.3%, the “average (diploid colonies)” value (Bc.Ste2) was 0.67 and 1 and the “diploid frequency (%)” value (Bc.Ste2) was 0.19% and 0.28%. For the same compound, the “Diploid frequency (%)” value (Sc Ste2) was 0.0%, the “Enrichment after mating, reads per million minus library before coculture” value (Fg.Ste2 [4]) was > 340,000 RPM and the “Diploid frequency (%)” value (Fg.Ste2 [5]; Fig. 1D mating matrix, pheromone secreted by MATa strain, GPCR in MATα strain, deep well plate, three technical plating replicates) was 0.5%. For the same compound, the “Diploid frequency (%)” value (Fg.Ste2 [5]; Fig. 1F validation in culture tubes, secreted pheromone, three biological and three technical replicates) was 8.8%, the “diploid frequency (%)” value (Fg.Ste2 [5]; co-culture replicate 1) was 1.34% and the “average (diploid colonies)” value (Fg.Ste2 [5]; co-culture replicate 1) was 5.67. For the same compound, the “diploid frequency (%)” value (Fg.Ste2 [5]; co-culture replicate 2) was 1.11%, the “average (diploid colonies)” value (Fg.Ste2 [5]; co-culture replicate 2) was 4.67 and the “diploid frequency (%)” value (Fg.Ste2 [5]; co-culture replicate 3) was 0.95%. The “average (diploid colonies)” value (Fg.Ste2 [5]; co-culture replicate 3) was 4, the “barcode qPCR of diploids, Fo.Ste2 x pheromone strain” value (Fo.Ste2 [6]) was 0.439 and the “Sup.Fig.7B - Fo, group mean” value (Fo.Ste2 [6]; pH=6) was 1.65. For the same compound, the “Sup.Fig.7B - Fo, group mean” value (Fo.Ste2 [6]; pH=7) was 0.8933, the “qPCR, Fo + Fo” value (Fo.Ste2 [6]; ph=6) was 0.386 and 0.413 and 0.467 and the “qPCR, Fo + Fo” value (Fo.Ste2 [6]; ph=7) was 0.660 and 0.439 and 0.352. For the same compound, the “diploid barcode qPCR signal relative to control (2^-dCt)” value (Bb.Ste2) was 0, the “Fold change yEGFP” value (Fo.Ste2 [7]) was 236 and the Hillslope (Fo.Ste2 [7]) was 2.574. The logEC50 (Fo.Ste2 [7]) was -7.534, the “Sup.Fig.3B Fo.Ste2 biosensor response, group mean” value (Fo.Ste2 [7]; 0.5 μM) was 1195000 and the “Diploid frequency (%)” value [8] was 0.1%.
